The results in this text go back to PMC8474115 (Journal of Medicinal Chemistry, 2021).

Values joined by “and” are separate entries in the source; they are usually repeats but may differ in a detail not shown here. Equal values may be shown once. Where a name gives a salt, the structure may show the parent alone. Read-outs that look alike come from different tables or passages of the source.

The target in one data set is T1, 5-HT3R (Cavia porcellus, UniProt O70212).
T1 sequence (O70212 20-490): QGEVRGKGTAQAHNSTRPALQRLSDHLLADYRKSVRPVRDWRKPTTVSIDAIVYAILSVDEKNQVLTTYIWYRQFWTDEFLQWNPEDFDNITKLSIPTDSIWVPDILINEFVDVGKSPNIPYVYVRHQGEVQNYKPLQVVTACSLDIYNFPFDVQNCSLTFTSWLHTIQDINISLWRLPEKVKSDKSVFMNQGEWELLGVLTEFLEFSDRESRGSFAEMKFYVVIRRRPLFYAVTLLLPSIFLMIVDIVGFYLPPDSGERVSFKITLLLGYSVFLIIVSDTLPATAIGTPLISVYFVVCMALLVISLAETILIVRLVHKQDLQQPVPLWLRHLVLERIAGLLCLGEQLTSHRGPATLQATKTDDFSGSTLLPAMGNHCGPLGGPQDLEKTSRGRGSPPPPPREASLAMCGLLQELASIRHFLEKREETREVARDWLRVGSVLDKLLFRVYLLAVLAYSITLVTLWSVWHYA
The following applies: for antagonist effect: percent inhibition of response to 5-HT 3 μM (contraction of guinea pig ileum); for functional classification at 5-HT3R: guinea pig ileum contraction.

Description for 5-HT3R: Isolated guinea pig ileum was employed to test the affinity and the intrinsic activity of the investigated compounds for 5-HT3 receptors. […] A 15 cm ileum segment was excised from the small intestine of male guinea pigs and immersed into a Krebs solution (NaCl 120 mM, KCl 5.6 mM, MgCl2 2.2 mM, CaCl2 2.4 mM, NaHCO3 19 mM, glucose 10 mM). After the first 5 cm length closest to the ileocaecal junction had been discarded 2 cm-long fragments were cut. Each segment of the ileum was placed in a 20 mL chamber of tissue organ bath system (Tissue Organ Bath System – 750 TOBS, DMT, Denmark) filled with the Krebs solution at 37° C, pH 7.4, with constant oxygenation (O2/CO2, 19:1), fixed by the lower end to a rod and by the upper end to the force–displacement transducer. The preparation was allowed to stabilize in organ baths for 60 min under a resting tension of 0.5 g, washing every 15 min with fresh Krebs solution. After the equilibration period, a cumulative concentration–response curve was constructed in each tissue for 5-HT (10 nM – 10 μM) by the method of van Rossum.[64] […] Selected compounds were tested using an additional method. After establishment of the first 5-HT concentration–response curve, washing out of the tissue, and stabilization period, the same tissues were subsequently incubated with one of the concentrations of the tested compound for 15 min and the next cumulative concentration curve to 5-HT was obtained. Only one concentration of a studied compound was tested in each piece of tissue.

As to `O=S(=O)(c1ccccc1Br)n1ccc2c(N3CCNCC3)nc3ccccc3c21` (as salt: hydrochloride) [Compound 15, 1-[(2-Bromophenyl)sulfonyl]-4-(piperazin-1-yl)-1H-pyrrolo[3,2-c]quinoline dihydrochloride], the melting point is 158 to 160 °C.
On to `CNC1CCN(c2nc3ccccc3c3c2ccn3S(=O)(=O)c2ccccc2)C1` (stereo not drawn) [Compound 10, N-Methyl-1-(1-(phenylsulfonyl)-1H-pyrrolo[3,2-c]quinolin-4-yl)pyrrolidin-3-amine dihydrochloride], for which the antagonist effect on 5-HT3R (300 nM) was 48% and 48 (300 nM) %.
Take `O=S(=O)(c1ccccc1)n1ccc2c(N[C@H]3CCNC3)nc3ccccc3c21` [Compound 8, (S)-1-(Phenylsulfonyl)-N-(pyrrolidin-3-yl)-1H-pyrrolo[3,2-c]quinolin-4-amine dihydrochloride]: the antagonist effect at 5-HT3R (300 nM) was 32% and 32 (300 nM) %.
`O=S(=O)(c1ccc(F)cc1)n1ccc2c(N3CCNCC3)nc3ccccc3c21` (as salt: hydrochloride) [Compound 22, 1-[(4-Fluorophenyl)sulfonyl]-4-(piperazin-1-yl)-1H-pyrrolo[3,2-c]quinoline dihydrochloride] gave a melting point of 172 to 174 °C.
Take `O=S(=O)(c1ccc(F)c(F)c1)n1ccc2c(N3CCNCC3)nc3ccccc3c21` (as salt: hydrochloride): the melting point fell in the range of 180 to 182 °C.
Still for that read-out and setting: the value for `O=S(=O)(c1ccccc1)n1ccc2c(N3CCCNCC3)nc3ccccc3c21` (as salt: hydrochloride) [Compound 11, 4-(1,4-Diazepan-1-yl)-1-(phenylsulfonyl)-1H-pyrrolo[3,2-c]quinoline dihydrochloride] was 247 to 248 °C; that for `O=S(=O)(c1ccccc1)n1ccc2c(NC3CNC3)nc3ccccc3c21` (as salt: hydrochloride) [Compound 9, N-(Azetidin-3-yl)-1-(phenylsulfonyl)-1H-pyrrolo[3,2-c]quinolin-4-amine dihydrochloride] was 243 to 246 °C.
For the compound `O=S(=O)(c1ccccc1)n1ccc2c(N3CCNCC3)nc3ccccc3c21` [Compound 7, 1-(Phenylsulfonyl)-4-(piperazin-1-yl)-1H-pyrrolo[3,2-c]quinoline dihydrochloride], the antagonist effect at 5-HT3R (100 nM) is 26%; at 5-HT3R (300 nM) it was 60%. Also, at 5-HT3R, the “functional classification at 5-HT3R” value was “antagonistic properties”.
Regarding `CNC1CCN(c2nc3ccccc3c3c2ccn3S(=O)(=O)c2ccccc2)C1` (stereo not drawn) (as salt: hydrochloride) [Compound 10, N-Methyl-1-(1-(phenylsulfonyl)-1H-pyrrolo[3,2-c]quinolin-4-yl)pyrrolidin-3-amine dihydrochloride], the melting point was in the range of 256 to 258 °C.
`O=S(=O)(c1ccc(C(F)(F)F)cc1)n1ccc2c(N3CCNCC3)nc3ccccc3c21` (as salt: hydrochloride) [Compound 23, 1-{[4-(Trifluoromethyl)phenyl]sulfonyl}-4-(piperazin-1-yl)-1H-pyrrolo[3,2-c]quinoline dihydrochloride] gave a melting point of 165 to 167 °C.
Regarding `Cc1cccc(S(=O)(=O)n2ccc3c(N4CCNCC4)nc4ccccc4c32)c1` (as salt: hydrochloride) [Compound 20, 1-[(3-Methylphenyl)sulfonyl]-4-(piperazin-1-yl)-1H-pyrrolo[3,2-c]quinoline dihydrochloride], the melting point fell in the range of 179 to 181 °C.
For the compound `CN1CCN(c2nc3ccccc3c3c2ccn3S(=O)(=O)c2ccccc2)CC1` [Compound 6, 1-(Phenylsulfonyl)-4-(4-methylpiperazin-1-yl)-1H-pyrrolo[3,2-c]quinoline hydrochloride], the antagonist effect at 5-HT3R (100 nM) is recorded as 28%; at 5-HT3R (300 nM) it was 48%. Moreover, the “functional classification at 5-HT3R” value on 5-HT3R is recorded as “antagonistic properties”.
`O=S(=O)(c1ccccc1)n1ccc2c(N3CCCNCC3)nc3ccccc3c21` [Compound 11, 4-(1,4-Diazepan-1-yl)-1-(phenylsulfonyl)-1H-pyrrolo[3,2-c]quinoline dihydrochloride]: the antagonist effect at 5-HT3R (300 nM) was 53% and 53 (300 nM) %.
In turn, `O=S(=O)(c1ccccc1)n1ccc2c(N[C@H]3CCNC3)nc3ccccc3c21` (as salt: hydrochloride) [Compound 8, (S)-1-(Phenylsulfonyl)-N-(pyrrolidin-3-yl)-1H-pyrrolo[3,2-c]quinolin-4-amine dihydrochloride] had a melting point of 220 to 222 °C.
On to `CN1CCN(c2nc3ccccc3c3c2ccn3S(=O)(=O)c2cccc(Cl)c2)CC1` [Compound 13, 1-[(3-Chlorophenyl)sulfonyl]-4-(4-methylpiperazin-1-yl)-1H-pyrrolo[3,2-c]quinoline hydrochloride], for which the antagonist effect is given as 10% at 5-HT3R (100 nM) and 44% on 5-HT3R (300 nM).
The compound `CC(C)c1ccc(S(=O)(=O)n2ccc3c(N4CCNCC4)nc4ccccc4c32)cc1` (as salt: hydrochloride) [Compound 24, 1-[(4-iso-Propylphenyl)sulfonyl]-4-(piperazin-1-yl)-1H-pyrrolo[3,2-c]quinoline dihydrochloride] registered a melting point of 212 to 214 °C.
For `O=S(=O)(c1ccccc1)n1ccc2c(NC3CNC3)nc3ccccc3c21` [Compound 9, N-(Azetidin-3-yl)-1-(phenylsulfonyl)-1H-pyrrolo[3,2-c]quinolin-4-amine dihydrochloride], the antagonist effect at 5-HT3R (300 nM) is 35% and 35 (300 nM) %.
`O=S(=O)(c1cc(F)ccc1F)n1ccc2c(N3CCNCC3)nc3ccccc3c21` (as salt: hydrochloride) [Compound 27, 1-[(2,5-Difluorophenyl)sulfonyl]-4-(piperazin-1-yl)-1H-pyrrolo[3,2-c]quinoline dihydrochloride]: the melting point is 204 to 206 °C.
Still for that read-out and setting: as for `O=S(=O)(c1ccccc1Cl)n1ccc2c(N3CCNCC3)nc3ccccc3c21` (as salt: hydrochloride), the figure is 157 to 159 °C; as for `CN1CCN(c2nc3ccccc3c3c2ccn3S(=O)(=O)c2ccccc2)CC1` (as salt: hydrochloride) [Compound 6, 1-(Phenylsulfonyl)-4-(4-methylpiperazin-1-yl)-1H-pyrrolo[3,2-c]quinoline hydrochloride], 127 to 129 °C.
As for `O=S(=O)(c1cc(F)ccc1F)n1ccc2c(N3CCNCC3)nc3ccccc3c21` [Compound 27, 1-[(2,5-Difluorophenyl)sulfonyl]-4-(piperazin-1-yl)-1H-pyrrolo[3,2-c]quinoline dihydrochloride], on 5-HT3R (300 nM), the antagonist effect is on record as 32 (300 nM) %.
For the compound `O=S(=O)(c1cccc(Cl)c1)n1ccc2c(N3CCNCC3)nc3ccccc3c21` (as salt: hydrochloride) [Compound 18, 1-[(3-Chlorophenyl)sulfonyl]-4-(piperazin-1-yl)-1H-pyrrolo[3,2-c]quinoline dihydrochloride], the melting point lay in the range of 161 to 163 °C.
Same read-out and setting: the value for `CN1CCN(c2nc3ccccc3c3c2ccn3S(=O)(=O)c2cccc(F)c2)CC1` (as salt: hydrochloride) [Compound 12, 1-[(3-Fluorophenyl)sulfonyl]-4-(4-methylpiperazin-1-yl)-1H-pyrrolo[3,2-c]quinoline hydrochloride] was 176 to 177 °C.
In the case of `CN1CCN(c2nc3ccccc3c3c2ccn3S(=O)(=O)c2cccc(F)c2)CC1` [Compound 12, 1-[(3-Fluorophenyl)sulfonyl]-4-(4-methylpiperazin-1-yl)-1H-pyrrolo[3,2-c]quinoline hydrochloride], the antagonist effect was found to be 30% on 5-HT3R (30 nM) and 74% on 5-HT3R (100 nM).
With `COc1cccc(S(=O)(=O)n2ccc3c(N4CCNCC4)nc4ccccc4c32)c1` [Compound 21, 1-[(3-Methoxyphenyl)sulfonyl]-4-(piperazin-1-yl)-1H-pyrrolo[3,2-c]quinoline dihydrochloride], the antagonist effect at 5-HT3R (100 nM) was 28%; on 5-HT3R (300 nM) it was 73%.
`O=S(=O)(c1cccc(C(F)(F)F)c1)n1ccc2c(N3CCNCC3)nc3ccccc3c21` (as salt: hydrochloride) [Compound 19, 1-{[3-(Trifluoromethyl)phenyl]sulfonyl}-4-(piperazin-1-yl)-1H-pyrrolo[3,2-c]quinoline dihydrochloride] gave a melting point of 182 to 185 °C.
Turning to `O=S(=O)(c1cccc(C(F)(F)F)c1)n1ccc2c(N3CCNCC3)nc3ccccc3c21` [Compound 19, 1-{[3-(Trifluoromethyl)phenyl]sulfonyl}-4-(piperazin-1-yl)-1H-pyrrolo[3,2-c]quinoline dihydrochloride], the results for the antagonist effect at 5-HT3R (100 nM) and at 5-HT3R (300 nM) were 21% and 37%, respectively. Moreover, the “pD2′” value on 5-HT3R (antagonist potency, guinea pig ileum) is given as 6.09.
Turning to `O=S(=O)(c1cccc2ccccc12)n1ccc2c(N3CCNCC3)nc3ccccc3c21` (as salt: hydrochloride), the melting point lay in the range of 218 to 220 °C.
`O=S(=O)(c1ccccc1)n1ccc2c(N3CCNCC3)nc3ccccc3c21` (as salt: hydrochloride) [Compound 7, 1-(Phenylsulfonyl)-4-(piperazin-1-yl)-1H-pyrrolo[3,2-c]quinoline dihydrochloride]: the melting point was in the range of 130 to 132 °C.
Turning to `O=S(=O)(c1ccc(Cl)c(Cl)c1)n1ccc2c(N3CCNCC3)nc3ccccc3c21` (as salt: hydrochloride), the melting point fell in the range of 203 to 205 °C.

What is called melting point is the temperature, or range, at which the solid turns liquid.
